Assay results taken from patent US12215140B2, “Method of stabilizing protein contained in specimen and solution for stabilizing protein contained in specimen” (EIKEN KAGAKU KABUSHIKI KAISHA, priority 2018, dated 2025).

Target: hemoglobin (Homo sapiens, UniProt P68871+P69905)
Assay: Stability of hemoglobin in samples preserved at 37° C. in preservation solution containing no haptoglobin, Hb measured by latex agglutination method (Examples 8, 9 and Table 10)
Settings: for Hb concentration / Recovery ratio with respect to Hb after 0 days: no phenylboronic acid, sugar 100 mmol/L; for recovery ratio of hemoglobin in the sample: sugar further added to phenylboronic acid 0.5 mmol/L, no haptoglobin, Feces 1, Feces 2, Feces 3
Protocol: Preservation solutions were prepared with the addition of 40 mmol/L HEPES (pH 6.8), 0.1% BSA, 0.1% NaN3, and 0 to 2.5 mmol/L phenylboronic acid. […] Samples obtained by adding hemoglobin-added fecal specimens to the preservation solutions so that the fecal concentration would be 0.5% were preserved at 37° C. for 0, 16, 38, and 62 hours. The fecal specimens were added with hemoglobin having an amount such that the hemoglobin concentration in the samples would be about 300 μg/L. Instead of the fecal specimens to which hemoglobin was added, samples containing no fecal specimens, in which hemoglobin was added to the preservation solutions so that the hemoglobin concentration in the samples would be 300 μg/L, were similarly preserved. The hemoglobin (Hb) concentrations (μg/L) in the preserved samples were measured by the latex agglutination method using the same measurement reagent and measurement device as in Example 1.
The concentration of phenylboronic acid in the preservation solutions of Example 8 was fixed to 0.5 mmol/L, preservation solutions to which sorbitol or sucrose was further added at 10 to 250 mmol/L or trehalose, glucose, fructose, or mannitol was further added at 50 to 100 mmol/L were prepared, and testing was conducted in the same manner as in Example 8. In addition, preservation solutions to which the phenylboronic acid was added but no sugar was added were prepared, preservation solutions to which the phenylboronic acid and sugar were not added were prepared for the comparative examples, and testing was conducted in the same manner.
For comparative examples, preservation solutions to which no arylboronic acid was added were prepared, and testing was conducted in the same manner.

Chain of hemoglobin (P69905 2-142): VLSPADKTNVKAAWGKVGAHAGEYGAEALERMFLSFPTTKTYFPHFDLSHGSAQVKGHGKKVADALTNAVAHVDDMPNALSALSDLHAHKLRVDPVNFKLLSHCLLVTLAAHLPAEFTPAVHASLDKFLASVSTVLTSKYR
Chain of hemoglobin (P68871 2-147): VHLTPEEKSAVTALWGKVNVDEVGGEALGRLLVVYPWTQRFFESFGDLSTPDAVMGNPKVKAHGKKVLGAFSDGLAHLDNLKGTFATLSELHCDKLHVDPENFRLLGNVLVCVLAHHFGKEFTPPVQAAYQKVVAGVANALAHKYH

OC[C@@H](O)[C@@H](O)[C@H](O)[C@H](O)CO [Mannitol, mannitol]
Hb concentration (Feces 1, 0 h at 37° C.): 276 µg/L
Recovery ratio with respect to Hb after 0 days (Feces 1, 0 h at 37° C.): 100%
Hb concentration (Feces 1, 16 h at 37° C.): 131 µg/L
Recovery ratio with respect to Hb after 0 days (Feces 1, 16 h at 37° C.): 48%
Hb concentration (Feces 1, 38 h at 37° C.): 29 µg/L
Recovery ratio with respect to Hb after 0 days (Feces 1, 38 h at 37° C.): 10%
Hb concentration (Feces 1, 62 h at 37° C.): 1 µg/L
Recovery ratio with respect to Hb after 0 days (Feces 1, 62 h at 37° C.): 0%
Hb concentration (Feces 2, 0 h at 37° C.): 266 µg/L
Recovery ratio with respect to Hb after 0 days (Feces 2, 0 h at 37° C.): 100%
Hb concentration (Feces 2, 16 h at 37° C.): 55 µg/L
Recovery ratio with respect to Hb after 0 days (Feces 2, 16 h at 37° C.): 21%
Hb concentration (Feces 2, 38 h at 37° C.): 1 µg/L
Recovery ratio with respect to Hb after 0 days (Feces 2, 38 h at 37° C.): 0%
Hb concentration (Feces 2, 62 h at 37° C.): 0 µg/L
Recovery ratio with respect to Hb after 0 days (Feces 2, 62 h at 37° C.): 0%
Hb concentration (No feces, 0 h at 37° C.): 281 µg/L
Recovery ratio with respect to Hb after 0 days (No feces, 0 h at 37° C.): 100%
Hb concentration (No feces, 16 h at 37° C.): 254 µg/L
Recovery ratio with respect to Hb after 0 days (No feces, 16 h at 37° C.): 91%
Hb concentration (No feces, 38 h at 37° C.): 237 µg/L
Recovery ratio with respect to Hb after 0 days (No feces, 38 h at 37° C.): 84%
Hb concentration (No feces, 62 h at 37° C.): 235 µg/L
Recovery ratio with respect to Hb after 0 days (No feces, 62 h at 37° C.): 84%
recovery ratio of hemoglobin in the sample: further improved

OC[C@H]1O[C@H](O[C@H]2O[C@H](CO)[C@@H](O)[C@H](O)[C@H]2O)[C@H](O)[C@@H](O)[C@@H]1O [Trehalose, trehalose]
Hb concentration (Feces 1, 0 h at 37° C.): 268 µg/L
Recovery ratio with respect to Hb after 0 days (Feces 1, 0 h at 37° C.): 100%
Hb concentration (Feces 1, 16 h at 37° C.): 133 µg/L
Recovery ratio with respect to Hb after 0 days (Feces 1, 16 h at 37° C.): 50%
Hb concentration (Feces 1, 38 h at 37° C.): 41 µg/L
Recovery ratio with respect to Hb after 0 days (Feces 1, 38 h at 37° C.): 15%
Hb concentration (Feces 1, 62 h at 37° C.): 8 µg/L
Recovery ratio with respect to Hb after 0 days (Feces 1, 62 h at 37° C.): 3%
Hb concentration (Feces 2, 0 h at 37° C.): 254 µg/L
Recovery ratio with respect to Hb after 0 days (Feces 2, 0 h at 37° C.): 100%
Hb concentration (Feces 2, 16 h at 37° C.): 54 µg/L
Recovery ratio with respect to Hb after 0 days (Feces 2, 16 h at 37° C.): 21%
Hb concentration (Feces 2, 38 h at 37° C.): 1 µg/L
Recovery ratio with respect to Hb after 0 days (Feces 2, 38 h at 37° C.): 0%
Hb concentration (Feces 2, 62 h at 37° C.): 0 µg/L
Recovery ratio with respect to Hb after 0 days (Feces 2, 62 h at 37° C.): 0%
Hb concentration (Feces 3, 0 h at 37° C.): 260 µg/L
Recovery ratio with respect to Hb after 0 days (Feces 3, 0 h at 37° C.): 100%
Hb concentration (Feces 3, 16 h at 37° C.): 48 µg/L
Recovery ratio with respect to Hb after 0 days (Feces 3, 16 h at 37° C.): 19%
Hb concentration (Feces 3, 38 h at 37° C.): 0 µg/L
Recovery ratio with respect to Hb after 0 days (Feces 3, 38 h at 37° C.): 0%
Hb concentration (Feces 3, 62 h at 37° C.): 0 µg/L
Recovery ratio with respect to Hb after 0 days (Feces 3, 62 h at 37° C.): 0%
Hb concentration (No feces, 0 h at 37° C.): 280 µg/L
Recovery ratio with respect to Hb after 0 days (No feces, 0 h at 37° C.): 100%
Hb concentration (No feces, 16 h at 37° C.): 241 µg/L
Recovery ratio with respect to Hb after 0 days (No feces, 16 h at 37° C.): 86%
Hb concentration (No feces, 38 h at 37° C.): 228 µg/L
Recovery ratio with respect to Hb after 0 days (No feces, 38 h at 37° C.): 81%
Hb concentration (No feces, 62 h at 37° C.): 219 µg/L
Recovery ratio with respect to Hb after 0 days (No feces, 62 h at 37° C.): 78%
recovery ratio of hemoglobin in the sample: further improved
